The values below come from US20230226106A1 (priority 2017, published 2023).

The test system of the data set is Human umbilical cord endothelial cells. The data set is classed as cell-based. The source says:
The toxicity of each component is checked on Human cell lines (Human umbilical cord endothelial cells).

For the setting “treatment with as much as 250 μg/mL”, `O=C(O)c1cc(O)c(O)c(O)c1` [Gallic acid] came in with a human cell growth of 100%.
Turning to `CCCCCCCCCCCCC/C=C/[C@@H](O)[C@@H](N)COP(=O)(O)O` [Sphingosine-1-phosphate, Sphingosine-1-Phosphate], the toxicity entry (Human umbilical cord endothelial cells) is recorded as “not toxic”. Where the note is “at as low as 1 μM concentration”, the proliferation of cells entry is “proliferative”.
